The results in this text go back to patent publication US20240216272A1, “PHARMACEUTICAL PREPARATION” (KOWA COMPANY, LTD., priority 2014, published 2024).

Each structure is given as a SMILES string.

Common to all, as to format: physicochemical
A short description of data set [1]: Test Example 5: photostability in plastic container containing an ultraviolet absorber. Conditions: for Analogs (%): aqueous composition 0.4 g/100 mL as free form, pH 6.0, polypropylene container containing ultraviolet absorber (transmittance 300 to 335 nm: 7.2%). The method, then:
Based on the results obtained in Test Examples 3 and 4, stabilization of an aqueous composition containing ripasudil was attempted by storing the aqueous composition in a container containing an ultraviolet absorber.
Specifically, an aqueous composition containing, per 100 mL, 0.4896 g of ripasudil monohydrochloride dihydrate (0.4 g, as the free form of ripasudil), 0.4 g of anhydrous sodium dihydrogen phosphate, 2.136 g of glycerin, 0.002 g of benzalkonium chloride, an appropriate amount of sodium hydroxide (pH 6.0), and sterile purified water (balance) was prepared. This aqueous composition was then stored in the below-described container for eye drops made of polypropylene, which contained an ultraviolet absorber. The aqueous composition was then irradiated with 4000 lux of light to give a cumulative radiation dose of 1,200,000 lux.hr, at 25° C., with a D65 fluorescent lamp as the light source, using a photostability tester (LT-120A: Nagano Science Corporation).
The amount of ripasudil analogs was evaluated for the sample before and after exposure to light, as in Test Example 1.
A container for eye drops made of polypropylene into which a benzotriazole-based ultraviolet absorber was mixed was used.

Data set [2] is described as follows: Test Example 8: Preservation Test No. 2, color difference (ΔYI) at 60° C. Conditions: for ΔYI: aqueous composition of Table 9 (boric acid, pH 6.7), 60° C. for 3 months; for Evaluation (ΔYI): aqueous composition of Table 9, 60° C. for 3 months. The method, then: An aqueous composition of the formulation shown in Table 9 was prepared in accordance with a conventional method, and then placed in a container made of polyethylene (PE) or polypropylene (PP) to produce a pharmaceutical preparation. Each of the resulting pharmaceutical preparations was preserved at 60° C. for 3 months, and a color difference (ΔYI) before and after the preservation was measured using a color difference meter (spectrophotometer, CM-700d: Konica Minolta Sensing, Inc.). A ΔYI value of 5 or more was rated as “b”, and a ΔYI value of less than 5 was rated as “a”. [table]

A short description of data set [3]: Test Example 6: photostability in container with shrinkable film containing an ultraviolet scattering agent. The conditions noted are these: for Analogs (%): aqueous composition 0.4 g/100 mL as free form, pH 6.0, polypropylene container wound with shrinkable film containing titanium oxide (transmittance 300 to 335 nm: 0.3%). The method, then:
Stabilization of the aqueous composition containing ripasudil was attempted by storing the aqueous composition in a container containing an ultraviolet scattering agent, as in Test Example 5. Specifically, the test was performed as in Test Example 5, except that the below-described container including a shrinkable film containing an ultraviolet scattering agent was used instead of the container containing an ultraviolet absorber, and a white fluorescent lamp (one used in a hospital dispensary and the like) was used as the light source instead of the D65 fluorescent lamp. A white shrinkable film (heat-shrinkable film) (Iwata Label Co., Ltd.) into which 40 to 45 mass % of titanium oxide was mixed as an ultraviolet scattering agent was wound around a side surface of a general container for eye drops made of polypropylene not containing an ultraviolet absorber, an ultraviolet scattering agent, or the like, in accordance with a conventional method, and the resulting container was used. […] Since the shrinkable film was not transparent, the contents were not visible through the side surface of the container in this state (for example, the average value of transmittance of light in the visible light region (450 to 750 nm) was 1.1%). Thus, slits with about a width of 5 mm were provided in the lower half of the side surface of the container to make the amount of the contents visible (this portion was not able to block the rays). The contents were visible through the bottom surface of the container, since the shrinkable film was not wound around the bottom surface.

The nature of data set [4]: Test Example 1: photostability of ripasudil (powder), analogs by HPLC. Conditions: for Analogs (%): powder in glass petri dish, D65 fluorescent lamp 4000 lux, 25° C. The method, then:
In the following test examples, ripasudil monohydrochloride dihydrate can be produced in accordance with the method described in WO2006/057397, for example. Moreover, in the following test examples, measurement of ripasudil and its analogs using HPLC was performed using an ODS column as the column, 0.01 mol/L phosphate buffer and acetonitrile as the mobile phase, and an ultraviolet absorptiometer (wavelength: 280 nm) as the detector.
The stability of ripasudil with respect to light was evaluated by examining the presence or absence of degradation products formed by exposure to light.
Specifically, powdery ripasudil monohydrochloride dihydrate was spread in a glass petri dish to a thickness of 3 mm or less, and then irradiated with 4000 lux of light to give a cumulative radiation dose of 400,000, 800,000, or 1,200, 000 lux·hr, at 25° C., with a D65 fluorescent lamp as the light source, using a photostability tester (LT-120A: Nagano Science Corporation).
To examine the presence or absence of photodegradation products of ripasudil, the presence or absence of an increase in the amount of ripasudil analogs was evaluated for the sample before and after exposure to light. The amount of analogs was evaluated as the ratio (%) of the peak area of analogs relative to the peak area of ripasudil, using HPLC.

Data set [5] can be described thus: Test Example 7: Preservation Test No. 1, color difference (ΔYI) at 60° C. Conditions: for ΔYI: aqueous composition of Table 7 (phosphate, pH 6.7), 60° C. for 3 months; for Evaluation (ΔYI): aqueous composition of Table 7, 60° C. for 3 months. The method, then:
An aqueous composition of the formulation shown in Table 7 was prepared in accordance with a conventional method, and then placed in a container made of polyethylene (PE), polypropylene (PP), or polyvinyl chloride (PVC) to produce a pharmaceutical preparation. Each of the resulting pharmaceutical preparations was preserved at 60° C. for 3 months, and a color difference (ΔYI) before and after the preservation was measured using a color difference meter (spectrophotometer, CM-700d: Konica Minolta Sensing, Inc.). A ΔYI value of 5 or more was rated as “b”, and a ΔYI value of less than 5 was rated as “a”. [table]

As for `C[C@H]1CNCCCN1S(=O)(=O)c1cccc2cncc(F)c12` [ripasudil, 4-fluoro-5-[[(2S)-2-methyl-1,4-diazepan-1-yl]sulfonyl]isoquinoline], the “Analogs (%)” value was 0.55% in data set [1] (D65 lamp, 25° C., 1,200,000 lux·hr); 0.11% in data set [1] (before exposure to light); 0.13% in data set [3] (before exposure to light); 0.28% in data set [3] (white fluorescent lamp, 1,200,000 lux·hr); 0.11% in data set [4] (before exposure to light); 0.14% in data set [4] (cumulative radiation dose 400,000 lux·hr). For the same compound, the “Analogs (%)” value in data set [4] (cumulative radiation dose 800,000 lux·hr) and in data set [4] (cumulative radiation dose 1,200,000 lux·hr) was 0.16% throughout. The “photostability of ripasudil in the aqueous composition” value in data set [1] (container with average transmittance at 300 to 335 nm of 7.2%, in words) was “improved”; in data set [3] (container with average transmittance at 300 to 335 nm of 0.3%, in words) it was “improved”. Further, the ΔYI in data set [2] (container PE) was 4.15; in data set [2] (container PP), 4.64; in data set [5] (container PE) it was 4.07; in data set [5] (container PP) it was 4.42; in data set [5] (container PVC), 7.45. For the same compound, the “Evaluation (ΔYI)” value is given as “a (a ΔYI value of less than 5 was rated as “a”)” in data set [2] (container PE); “a (a ΔYI value of less than 5 was rated as “a”)” in data set [2] (container PP); “a (a ΔYI value of less than 5 was rated as “a”)” in data set [5] (container PE); “a (a ΔYI value of less than 5 was rated as “a”)” in data set [5] (container PP); “b (A ΔYI value of 5 or more was rated as “b”)” in data set [5] (container PVC). Also, the “formation of photodegradation products” value in data set [4] (powder, up to 1,200,000 lux·hr, in words) was “no formation of photodegradation products was observed”.
